PMC8286840, “Identifying SARS-CoV-2 antiviral compounds by screening for small molecule inhibitors of Nsp3 papain-like protease” (Biochemical Journal, 2021)
Counter-ions that a name gives are not always drawn. Like-named read-outs stand apart in the source and are kept apart here.

What was measured:
[1] = biological target: T1, SARS-CoV-2 PLpro (nsp3 1564–1878) (Severe acute respiratory syndrome coronavirus 2, UniProt P0DTD1); test: biochemical; design: FRET-quenched peptide (Pro3) cleavage by PLpro, 10 min pre-incubation, slope over 20 min, normalised to no-compound control; settings: high concentration screen, read-out: % of control remaining
[2] = biological target: T1, SARS-CoV-2 PLpro (nsp3 1564–1878); test: biochemical; design: FRET-quenched peptide (Pro3) cleavage by PLpro, 10 min pre-incubation, slope over 20 min, normalised to no-compound control; settings: low concentration screen, read-out: % of control remaining

## C=CCN1C[C@H](C(=O)N(CCCN(C)C)C(=O)NCC)C[C@@H]2c3cccc4[nH]cc(c34)C[C@H]21 [Cabergoline]
[1]; Well no.=1929
  remaining activity at 3.75 µM: 105%
[1]; Well no.=7179
  remaining activity at 3.75 µM: 96.6%
[2]; Well no.=1929
  remaining activity at 1.25 µM: 105%
[2]; Well no.=7179
  remaining activity at 1.25 µM: 94.5%

## COc1cc2c(cc1O)CCN[C@]21CS[C@@H]2c3c(OC(C)=O)c(C)c4c(c3[C@H](COC1=O)N1[C@@H]2[C@H]2c3c(cc(C)c(OC)c3O)C[C@@H]([C@@H]1C#N)N2C)OCO4 [Ecteinascidin 770]
[1]; Well no.=7070
  remaining activity at 3.75 µM: 97.2%
[2]; Well no.=7070
  remaining activity at 1.25 µM: 100%

## NC1(C(=O)O)CC1 [1-Aminocyclopropanecarboxylic acid hydrochloride]
[1]; Well no.=341
  remaining activity at 3.75 µM: 102%
[2]; Well no.=341
  remaining activity at 1.25 µM: 100%

## C[C@H]1CC[C@@H]2[C@@H](C)[C@H]3[C@H](C[C@H]4[C@@H]5CC=C6C[C@@H](O[C@@H]7O[C@H](CO)[C@H](O)[C@H](O[C@@H]8O[C@H](CO)[C@@H](O)[C@H](O)[C@H]8O)[C@H]7O[C@H]7O[C@@H](C)[C@H](O)[C@@H](O)[C@H]7O)CC[C@]6(C)[C@H]5CC[C@]34C)N2C1 (racemic)
[1]; Well no.=3465
  remaining activity at 3.75 µM: 105%
[2]; Well no.=3465
  remaining activity at 1.25 µM: 105%

## COC(=O)[C@H](c1ccccc1Cl)N1CCc2sccc2C1 [Clopidogrel (hydrogen sulfate)]
[1]; Well no.=7563
  remaining activity at 3.75 µM: 96.5%
[1]; Well no.=7926
  remaining activity at 3.75 µM: 98.2%
[2]; Well no.=7563
  remaining activity at 1.25 µM: 95.7%
[2]; Well no.=7926
  remaining activity at 1.25 µM: 95.8%

## COc1nc(C)cnc1NS(=O)(=O)c1cccnc1-c1ccc(-c2nnco2)cc1 [Zibotentan]
[1]; Well no.=6318
  remaining activity at 3.75 µM: 98.2%
[2]; Well no.=6318
  remaining activity at 1.25 µM: 98.5%

## NC(=O)CCCSc1nc(N)nc(-c2c(Cl)cc3c4c(cccc24)COC3)n1 [CH5138303]
[1]; Well no.=8668
  remaining activity at 3.75 µM: 90.8%
[2]; Well no.=8668
  remaining activity at 1.25 µM: 95%

## CN(C)CC/C=C1/c2ccccc2Sc2ccc(Cl)cc21 [Chlorprothixene]
[1]; Well no.=5345
  remaining activity at 3.75 µM: 93.5%
[1]; Well no.=6221
  remaining activity at 3.75 µM: 99.3%
[2]; Well no.=5345
  remaining activity at 1.25 µM: 97.4%
[2]; Well no.=6221
  remaining activity at 1.25 µM: 104%

## O[C@H]1[C@H](O)[C@@H](O)[C@H](O)[C@@H](O)[C@@H]1O [scyllo -Inositol]
[1]; Well no.=5379
  remaining activity at 3.75 µM: 102%
[2]; Well no.=5379
  remaining activity at 1.25 µM: 104%

## CCC1=C(C)CN(C(=O)NCCc2ccc(S(=O)(=O)NC(=O)N[C@H]3CC[C@H](C)CC3)cc2)C1=O [Glimepiride]
[1]; Well no.=2178
  remaining activity at 3.75 µM: 97%
[2]; Well no.=2178
  remaining activity at 1.25 µM: 96.4%

## COc1ccc(-c2cc(C(F)F)nn2-c2ccc(S(N)(=O)=O)cc2)cc1F [Deracoxib]
[1]; Well no.=7408
  remaining activity at 3.75 µM: 102%
[2]; Well no.=7408
  remaining activity at 1.25 µM: 106%

## Nc1cccc2c1CN(C1CCC(=O)NC1=O)C2=O (stereo not shown) [Lenalidomide (Revlimid)]
[1]; Well no.=4838
  remaining activity at 3.75 µM: 97.8%
[2]; Well no.=4838
  remaining activity at 1.25 µM: 97.7%

## Nc1ncnc2c1ncn2[C@@H]1O[C@H](COP(=O)(O)O)[C@@H](O)[C@H]1O [Adenosine monophosphate]
[1]; Well no.=7109
  remaining activity at 3.75 µM: 102%
[1]; Well no.=7816
  remaining activity at 3.75 µM: 104%
[2]; Well no.=7109
  remaining activity at 1.25 µM: 103%
[2]; Well no.=7816
  remaining activity at 1.25 µM: 107%

## Nc1nc2c(ncn2[C@H]2C[C@H](O)[C@@H](CO)O2)c(=O)[nH]1 [2'-Deoxyguanosine]
[1]; Well no.=6209
  remaining activity at 3.75 µM: 97.7%
[1]; Well no.=7772
  remaining activity at 3.75 µM: 101%
[2]; Well no.=6209
  remaining activity at 1.25 µM: 102%
[2]; Well no.=7772
  remaining activity at 1.25 µM: 99.2%

## CCCCC[C@H](O)/C=C/C=C\C=C\[C@@H](O)C/C=C\CCCC(=O)O [8(S),15(S)-DIHETE]
[1]; Well no.=4371
  remaining activity at 3.75 µM: 99.4%
[2]; Well no.=4371
  remaining activity at 1.25 µM: 102%

## CNCCC(Oc1ccccc1OC)c1ccccc1 (stereo not shown) [Nisoxetine hydrochloride]
[1]; Well no.=892
  remaining activity at 3.75 µM: 99.8%
[2]; Well no.=892
  remaining activity at 1.25 µM: 100%

## C[N+](C)(C)CC#CCN1CCCC1=O [Oxotremorine methiodide]
[1]; Well no.=1138
  remaining activity at 3.75 µM: 97.9%
[2]; Well no.=1138
  remaining activity at 1.25 µM: 96.9%

## Cc1[nH]c(/C=C2\C(=O)Nc3ccc(S(=O)(=O)Cc4c(Cl)cccc4Cl)cc32)c(C)c1C(=O)N1CCC[C@@H]1CN1CCCC1 [PHA 665752 - (2R)-1-[[5-[(Z)-[5-[[(2,6-Dichlorophenyl)methyl]sulfonyl]-1,2-dihydro-2-oxo-3H-indol-3-ylidene]methyl]-2,4-dimethyl-1H-pyrrol-3-yl]carbonyl]-2-(1-pyrrolidinylmethyl)pyrrolidine]
[1]; Well no.=2590
  remaining activity at 3.75 µM: 98.3%
[2]; Well no.=2590
  remaining activity at 1.25 µM: 96.2%

## COc1ccccc1Oc1c(NS(=O)(=O)c2ccc(C(C)(C)C)cc2)nc(-c2ncccn2)nc1OCCO [Bosentan (hydrate)]
[1]; Well no.=6461
  remaining activity at 3.75 µM: 101%
[2]; Well no.=6461
  remaining activity at 1.25 µM: 102%

## S=C(NCc1ccc2c(c1)OCO2)N1CCN(c2ncnc3c2oc2ccccc23)CC1 [MP-470]
[1]; Well no.=2745
  remaining activity at 3.75 µM: 104%
[2]; Well no.=2745
  remaining activity at 1.25 µM: 103%

## O=C(O)c1cc(-c2ccc(F)cc2F)ccc1O [Diflunisal]
[1]; Well no.=1984
  remaining activity at 3.75 µM: 102%
[2]; Well no.=1984
  remaining activity at 1.25 µM: 102%

## CC(C)(O/N=C(\C(=O)N[C@@H]1C(=O)N2C(C(=O)[O-])=C(C[n+]3ccccc3)CS[C@H]12)c1csc(N)n1)C(=O)O [Ceftazidime]
[1]; Well no.=2221
  remaining activity at 3.75 µM: 98%
[2]; Well no.=2221
  remaining activity at 1.25 µM: 98.3%

## CC(=O)O[C@@H]1[C@@H](OC(C)=O)[C@@H](O)[C@H](Oc2c(-c3ccc(O)cc3)oc3cc(O)cc(O)c3c2=O)O[C@H]1C [RSK Inhibitor, SL0101]
[1]; Well no.=2635
  remaining activity at 3.75 µM: 97.4%
[2]; Well no.=2635
  remaining activity at 1.25 µM: 95.6%

## CC(C)(S)[C@H](N)C(=O)O [L-Penicillamine]
[1]; Well no.=3332
  remaining activity at 3.75 µM: 99.5%
[2]; Well no.=3332
  remaining activity at 1.25 µM: 100%

## O=C(O)c1nn(Cc2ccc(Cl)cc2Cl)c2ccccc12 [Lonidamine]
[1]; Well no.=1121
  remaining activity at 3.75 µM: 97%
[2]; Well no.=1121
  remaining activity at 1.25 µM: 92.8%

## NC(=S)NN=Cc1ncccc1N [3-amino-2-pyridinecarbaldehyde thiosemicarbazone]
[1]; Well no.=5964
  remaining activity at 3.75 µM: 97.9%
[2]; Well no.=5964
  remaining activity at 1.25 µM: 98.3%

## CC(C)(C)C(=O)Oc1ccc(S(=O)(=O)Nc2ccccc2C(=O)NCC(=O)O)cc1 [sodium ({2-[({4-[(2,2-dimethylpropanoyl)oxy]phenyl}sulfonyl)amino]benzoyl}amino)acetate hydrate]
[1]; Well no.=5452
  remaining activity at 3.75 µM: 101%
[2]; Well no.=5452
  remaining activity at 1.25 µM: 95.1%

## Cn1c(=O)ccn([C@@H]2O[C@H](CO)[C@@H](O)[C@H]2O)c1=O [3-Methyluridine]
[1]; Well no.=7067
  remaining activity at 3.75 µM: 91.5%
[1]; Well no.=7918
  remaining activity at 3.75 µM: 101%
[2]; Well no.=7067
  remaining activity at 1.25 µM: 93.2%
[2]; Well no.=7918
  remaining activity at 1.25 µM: 101%

## CN(C)CCCN1c2ccccc2Sc2ccc(Cl)cc21 [Chlorpromazine hydrochloride]
[1]; Well no.=44
  remaining activity at 3.75 µM: 96.9%
[2]; Well no.=44
  remaining activity at 1.25 µM: 98.8%
